Reference: US9783532B2, “Molecules having certain pesticidal utilities, and intermediates, compositions, and processes related thereto” (Dow AgroSciences LLC, priority 2013, dated 2017)
Read-outs that look alike come from different tables or passages of the source.

Legend:
Assay type in all cases: in vivo
[1] = test system: Beet Armyworm (Spodoptera exigua) ("BAW"); assay: Bioassay on beet armyworm (BAW), 128-well diet tray assay; settings: for mortality at 50 µg/cm2: 168 h, 50 μg/cm^2 on artificial diet, second instar BAW larvae, 25° C., five to seven days, average of eight wells, read-out: BAW % Control (or Mortality) rating; for pest or weed control at 50 µg/cm2: Table ABC (FB), activity rating class, read-out: BAW (Biological Results, Insect species)
In short: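 Second-instar larvae (one to five per well) were placed on artificial diet surface-treated with 50 μg/cm^2 compound applied in 90:10 acetone-water and dried, eight wells per compound. Held at 25° C., 14:10 light-dark for five to seven days; percent mortality was scored per well and averaged over the eight wells.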

[2] = test system: Cabbage Looper (Trichoplusia ni) ("CL"); assay: Bioassay on cabbage looper (CL), 128-well diet tray assay; settings: for mortality at 50 µg/cm2: 168 h, 50 μg/cm^2 on artificial diet, second instar CL larvae, 25° C., five to seven days, average of eight wells, read-out: CL % Control (or Mortality) rating; for pest or weed control at 50 µg/cm2: activity rating class, read-out: CL (Biological Results, Insect species)
In short: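 Second-instar larvae (one to five per well) placed on artificial diet surface-treated with 50 μg/cm^2 compound in 90:10 acetone-water, dried before infestation. Held 25 °C, 14:10 light-dark for five to seven days; percent mortality scored per well and averaged over eight wells.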

[3] = test system: Yellow Fever Mosquito "YFM" (Aedes aegypti); settings: for YFM % Control (or Mortality) rating: about 1 day-old larvae, 96-well plate, room temperature, 3 days; for YFM (Biological Results, Insect species): activity rating class
Description: Certain molecules disclosed in this document were tested against YFM using procedures described in the following paragraph. In the reporting of the results, the “YFM Rating Table” was used (See Table Section).
Master plates containing 400 μg of a molecule dissolved in 100 μL of dimethyl sulfoxide (DMSO) (equivalent to a 4000 ppm solution) are used. A master plate of assembled molecules contains 15 μL per well. To this plate, 135 μL of a 90:10 wateracetone mixture is added to each well. A robot (Biomek® NXP Laboratory Automation Workstation) is programmed to dispense 15 μL aspirations from the master plate into an empty 96-well shallow plate (“daughter” plate). There are 6 reps (“daughter” plates) created per master. The created daughter plates are then immediately infested with YFM larvae.
The day before plates are to be treated, mosquito eggs are placed in Millipore water containing liver powder to begin hatching (4 g. into 400 mL). After the daughter plates are created using the robot, they are infested with 220 μL of the liver powder/larval mosquito mixture (about 1 day-old larvae). After plates are infested with mosquito larvae, a non-evaporative lid is used to cover the plate to reduce drying. Plates are held at room temperature for 3 days prior to grading. After 3 days, each well is observed and scored based on mortality.

Row | SMILES | mortality at 50 µg/cm2 [1] | mortality at 50 µg/cm2 [2] | YFM % Control (or Mortality) rating [3] | pest or weed control at 50 µg/cm2 [1] | pest or weed control at 50 µg/cm2 ([2]; Table ABC (FB)) | other results
1 | Cc1cccc(N2C(=O)CS/C2=N\C(=O)NCCc2ccc(-c3ncn(-c4ccc(OC(F)(F)F)cc4)n3)cc2)c1C(C)C [P27, (Z)-1-(3-(2-isopropyl-3-methylphenyl)-4-oxothiazolidin-2-ylidene)-3-(4-(1-(4-(trifluoromethoxy)phenyl)-1H-1,2,4-triazol-3-yl)phenethyl)urea] | 50 to 100% | 50 to 100% | A (80-100) |  |  | 
2 | Cc1ccc(C(C)C)c(N2C(=O)CS/C2=N\C(=O)NCCC#Cc2ccc(-c3ncn(-c4ccc(OC(F)(F)F)cc4)n3)cc2)c1 [P160, (Z)-1-(3-(2-isopropyl-5-methylphenyl)-4-oxothiazolidin-2-ylidene)-3-(4-(4-(1-(4-(trifluoromethoxy)phenyl)-1H-1,2,4-triazol-3-yl)phenyl)but-3-yn-1-yl)urea] | 50 to 100% | 50 to 100% | B (More than 0-Less than 80) |  |  | 
3 | COc1ccc(N2C(=O)CS/C2=N\C(=O)NC(C)Cc2ccc(-c3ncn(-c4ccc(OC(F)(F)F)cc4)n3)cc2)c(C)c1 (stereo not drawn) [P45, (Z)-1-(3-(4-methoxy-2-methylphenyl)-4-oxothiazolidin-2-ylidene)-3-(1-(4-(1-(4-(trifluoromethoxy)phenyl)-1H-1,2,4-triazol-3-yl)phenyl)propan-2-yl)urea] | 50 to 100% | 50 to 100% | A (80-100) |  |  | 
4 | COc1ccc(N2/C(=N/C(=O)NCCc3ccc(-c4ncn(-c5ccc(OC(F)(F)F)cc5)n4)cc3)SCC2C)c(C)c1 (stereo not drawn) [FB58, (Z)-1-(3-(4-methoxy-2-methylphenyl)-4-methylthiazolidin-2-ylidene)-3-(4-(1-(4-(trifluoromethoxy)phenyl)-1H-1,2,4-triazol-3-yl)phenethyl)urea] |  |  |  | 50 to 100% | 50 to 100% | YFM (Biological Results, Insect species) ([3]; Table ABC (FB)): A (80-100)
5 | Cc1ccc(N2/C(=N/C(=O)NCCc3ccc(-c4ncn(-c5ccc(OC(F)(F)F)cc5)n4)cc3)SCC2C)c(C(C)C)c1 (stereo not drawn) [FB60, (Z)-1-(3-(2-isopropyl-4-methylphenyl)-4-methylthiazolidin-2-ylidene)-3-(4-(1-(4-(trifluoromethoxy)phenyl)-1H-1,2,4-triazol-3-yl)phenethyl)urea] |  |  |  | 50 to 100% | 50 to 100% | YFM (Biological Results, Insect species) ([3]; Table ABC (FB)): A (80-100)
6 | Cc1ccc(C(C)C)c(-n2c(C)cs/c2=N\C(=O)NCCc2ccc(-c3ncn(-c4ccc(OC(F)(F)F)cc4)n3)cc2)c1 [P65, (Z)-1-(3-(2-isopropyl-5-methylphenyl)-4-methylthiazol-2(3H)-ylidene)-3-(4-(1-(4-(trifluoromethoxy)phenyl)-1H-1,2,4-triazol-3-yl)phenethyl)urea] | 50 to 100% | 50 to 100% | A (80-100) |  |  | 
7 | Cc1ccc(N2C(=O)CS/C2=N\C(=O)NCCc2ccc(-c3ncn(-c4ccc(OC(F)(F)F)cc4)n3)cc2)c(C(C)C)c1 [P26, (Z)-1-(3-(2-isopropyl-4-methylphenyl)-4-oxothiazolidin-2-ylidene)-3-(4-(1-(4-(trifluoromethoxy)phenyl)-1H-1,2,4-triazol-3-yl)phenethyl)urea] | 50 to 100% | 50 to 100% | A (80-100) |  |  | 
8 | CCC(CNC(=O)/N=C1\SCC(=O)N1c1cc(OC)ccc1C(C)C)c1ccc(-c2ncn(-c3ccc(OC(F)(F)F)cc3)n2)cc1 (stereo not drawn) [P683, (Z)-1-(3-(2-isopropyl-5-methoxyphenyl)-4-oxothiazolidin-2-ylidene)-3-(2-(4-(1-(4-(trifluoromethoxy)phenyl)-1H-1,2,4-triazol-3-yl)phenyl)butyl)urea] | 50 to 100% |  | A (80-100) |  |  | 
9 | CC(C)(C)c1ccccc1N1C(=O)CS/C1=N\C(=O)NCCc1ccc(-c2ncn(-c3ccc(OC(F)(F)F)cc3)n2)cc1 [P30, (Z)-1-(3-(2-(tert-butyl)phenyl)-4-oxothiazolidin-2-ylidene)-3-(4-(1-(4-(trifluoromethoxy)phenyl)-1H-1,2,4-triazol-3-yl)phenethyl)urea] | 50 to 100% | 50 to 100% | A (80-100) |  |  | 
10 | CC(C)c1ccc(Cl)cc1N1C(=O)CS/C1=N\C(=O)NCCc1ccc(-c2ncn(-c3ccc(OC(F)(F)F)cc3)n2)cc1 [FB40, (Z)-1-(3-(5-chloro-2-isopropylphenyl)-4-oxothiazolidin-2-ylidene)-3-(4-(1-(4-(trifluoromethoxy)phenyl)-1H-1,2,4-triazol-3-yl)phenethyl)urea] |  |  |  | 50 to 100% | 50 to 100% | YFM (Biological Results, Insect species) ([3]; Table ABC (FB)): A (80-100)
11 | CCC(CNC(=O)/N=C1\SCC(=O)N1c1ccccc1C(C)C)c1ccc(-c2ncn(-c3ccc(OC(F)(F)F)cc3)n2)cc1 (stereo not drawn) [P209, (Z)-1-(3-(2-isopropylphenyl)-4-oxothiazolidin-2-ylidene)-3-(2-(4-(1-(4-(trifluoromethoxy)phenyl)-1H-1,2,4-triazol-3-yl)phenyl)butyl)urea] | 50 to 100% |  | A (80-100) |  |  | 
12 | CCc1cc(C)ccc1N1/C(=N/C(=O)NCCc2ccc(-c3ncn(-c4ccc(OC(F)(F)F)cc4)n3)cc2)SCC1C (stereo not drawn) [FB56, (Z)-1-(3-(2-ethyl-4-methylphenyl)-4-methylthiazolidin-2-ylidene)-3-(4-(1-(4-(trifluoromethoxy)phenyl)-1H-1,2,4-triazol-3-yl)phenethyl)urea] |  |  |  | 50 to 100% | 50 to 100% | YFM (Biological Results, Insect species) ([3]; Table ABC (FB)): A (80-100)
13 | COc1ccc(C(C)C)c(N2C(=O)CS/C2=N\C(=O)NCCCCc2ccc(-c3ncn(-c4ccc(OC(F)(F)F)cc4)n3)cc2)c1 [P156, P682, (Z)-1-(3-(2-isopropyl-5-methoxyphenyl)-4-oxothiazolidin-2-ylidene)-3-(4-(4-(1-(4-(trifluoromethoxy)phenyl)-1H-1,2,4-triazol-3-yl)phenyl)butyl)urea] | 50 to 100% | 50 to 100% | A (80-100) |  |  | 
14 | CCc1cc(C)ccc1N1C(=O)CS/C1=N\C(=O)NCCc1ccc(-c2ncn(-c3ccc(OC(F)(F)F)cc3)n2)cc1 [P31, (Z)-1-(3-(2-ethyl-4-methylphenyl)-4-oxothiazolidin-2-ylidene)-3-(4-(1-(4-(trifluoromethoxy)phenyl)-1H-1,2,4-triazol-3-yl)phenethyl)urea] | 50 to 100% | 50 to 100% | A (80-100) |  |  | 
15 | CCCc1ccc(C)cc1N1C(=O)CS/C1=N\C(=O)NCCCCc1ccc(-c2ncn(-c3ccc(OC(F)(F)F)cc3)n2)cc1 [P151, P842, (Z)-1-(3-(5-methyl-2-propylphenyl)-4-oxothiazolidin-2-ylidene)-3-(4-(4-(1-(4-(trifluoromethoxy)phenyl)-1H-1,2,4-triazol-3-yl)phenyl)butyl)urea] | 50 to 100% | 50 to 100% | A (80-100) |  |  | 
16 | CCc1cccc(C)c1NC(=S)NC(=O)NCCCCc1ccc(-c2ncn(-c3ccc(OC(F)(F)F)cc3)n2)cc1 [PC153, 1-[(2-ethyl-6-methyl-phenyl)carbamothioyl]-3-[4-[4-[1-[4-(trifluoromethoxy)phenyl]-1H-1,2,4-triazol-3-yl]phenyl]butyl]urea] |  |  |  |  |  | pest or weed control at 50 µg/cm2 ([2]; Table ABC (PC)): 50 to 100%; YFM (Biological Results, Insect species) ([3]; Table ABC (PC)): B (More than 0-Less than 80)
17 | CCC(CNC(=O)/N=C1\SCC(=O)N1c1ccc(F)cc1C(C)C)c1ccc(-c2ncn(-c3ccc(OC(F)(F)F)cc3)n2)cc1 (stereo not drawn) [P1163] | 50 to 100% |  | D (No activity noticed in this bioassay) |  |  | 
18 | COc1ccc(C(C)C)c(NC(=S)NC(=O)NCCc2ccc(-c3ncn(-c4ccc(OC(F)(F)F)cc4)n3)cc2C)c1 [FB2] |  |  |  | 50 to 100% | 50 to 100% | 
19 | CC(C)c1ccc(Cl)cc1NC(=S)NC(=O)NCc1cccc(-c2ncn(-c3ccc(OC(F)(F)F)cc3)n2)c1 [FB26, 1-[(5-chloro-2-isopropyl-phenyl)carbamothioyl]-3-[[3-[1-[4-(trifluoromethoxy)phenyl]-1H-1,2,4-triazol-3-yl]phenyl]methyl]urea] |  |  |  | 50 to 100% | 50 to 100% | 
